Assays:
[1] = tested on: SARS-CoV-2; experiment: Pretreatment screening, SARS-CoV-2 plaque numbers on Vero E6 cells; assay type: cell-based
[2] = Aqueous stability of artemisinin in presence of additives (1H NMR); assay type: physicochemical; conditions: 93° C. for 90 minutes
Experimental: Two solvents were tested, tap water and premade black coffee, and glucose (1 equivalent) was tested as a reductant. All mixtures were heated to 93° C. for 90 minutes in 10 mL glass vials open to the atmosphere. Halfway through heating, 1-2 mL of tap water was added to compensate for evaporation. Following heating, 2 mL ethyl acetate was added, and the biphasic solution was dried using a rotary evaporator with water bath at 40° C. The flask was further dried for three hours under high vacuum. All samples were dissolved in CDCl3 containing 0.5 equivalents of an internal standard (1,2,4,5-tetramethylbenzene) and ^1H NMR performed.

[3] = tested on: SARS-CoV-2; experiment: SARS-CoV-2 induced cytopathic effect (CPE) in Vero E6 cells, MTS method; assay type: cell-based; conditions: 72 h

Question: Which “# of Plaques” value ([1]; pretreatment 15 min, dilution 100) does the source give for `C[C@@H]1CC[C@H]2[C@@H](C)C(=O)O[C@@H]3O[C@@]4(C)CC[C@@H]1[C@]32OO4` [artemisinin] here?
Answer: 78

Question: What about the “# of Plaques” value ([1]; pretreatment 15 min, dilution 1,000) of the same compound?
Answer: 104

Question: And the “# of Plaques” value ([1]; pretreatment 15 min, dilution 10,000)?
Answer: 109

Question: What about the “plaques observed divided by average of negative control multiplied by 100” value (from here on “plaques observed divided by average”) ([1]; pretreatment 15 min, sample 0.22 μg/mL) of the same compound?
Answer: 95.63

Question: What about the “plaques observed divided by average” value ([1]; pretreatment 15 min, sample 2.2 μg/mL) of the same compound?
Answer: 84.06

Question: What about the “plaques observed divided by average” value ([1]; pretreatment 15 min, sample 22 μg/mL) of the same compound?
Answer: 80.21

Question: And the “plaques observed divided by average” value ([1]; pretreatment 15 min, sample 220 μg/mL)?
Answer: 60.15

Question: What about the “# of Plaques” value ([1]; pretreatment 30 min, dilution 100) of the same compound?
Answer: 88

Question: And the “# of Plaques” value ([1]; pretreatment 30 min, dilution 1,000)?
Answer: 100

Question: What about the “# of Plaques” value ([1]; pretreatment 30 min, dilution 10,000) of the same compound?
Answer: 102

Question: What about the “plaques observed divided by average” value ([1]; pretreatment 30 min, sample 0.22 μg/mL) of the same compound?
Answer: 104.88

Question: And the “plaques observed divided by average” value ([1]; pretreatment 30 min, sample 2.2 μg/mL)?
Answer: 78.66

Question: And the “plaques observed divided by average” value ([1]; pretreatment 30 min, sample 22 μg/mL)?
Answer: 78.66

Question: What about the “plaques observed divided by average” value ([1]; pretreatment 30 min, sample 220 μg/mL) of the same compound?
Answer: 67.87

Question: What about the “# of Plaques” value ([1]; pretreatment 60 min, dilution 100) of the same compound?
Answer: 96

Question: What about the “# of Plaques” value ([1]; pretreatment 60 min, dilution 1,000) of the same compound?
Answer: 120

Question: What about the “# of Plaques” value ([1]; pretreatment 60 min, dilution 10,000) of the same compound?
Answer: 100

Question: And the “plaques observed divided by average” value ([1]; pretreatment 60 min, sample 0.22 μg/mL)?
Answer: 95.63

Question: What about the “plaques observed divided by average” value ([1]; pretreatment 60 min, sample 2.2 μg/mL) of the same compound?
Answer: 77.12

Question: What about the “plaques observed divided by average” value ([1]; pretreatment 60 min, sample 22 μg/mL) of the same compound?
Answer: 92.54

Question: And the “plaques observed divided by average” value ([1]; pretreatment 60 min, sample 220 μg/mL)?
Answer: 74.04

Question: And the “# of Plaques” value ([1]; pretreatment 120 min, dilution 100)?
Answer: 106

Question: And the “plaques observed divided by average” value ([1]; pretreatment 120 min, sample 0.22 μg/mL)?
Answer: 103.34

Question: And the “plaques observed divided by average” value ([1]; pretreatment 120 min, sample 2.2 μg/mL)?
Answer: 95.63

Question: And the “plaques observed divided by average” value ([1]; pretreatment 120 min, sample 22 μg/mL)?
Answer: 103.34

Question: And the “plaques observed divided by average” value ([1]; pretreatment 120 min, sample 220 μg/mL)?
Answer: 81.75

Question: And the loss of artemisinin ([2]; premade black coffee + glucose (1 equivalent))?
Answer: 19%

Question: And the degradation of artemisinin ([2]; premade black coffee)?
Answer: 17%

Question: What about the loss of artemisinin ([2]; tap water + glucose (1 equivalent)) of the same compound?
Answer: 32%

Question: For `C[C@H]1[C@H](OC(=O)CCC(=O)O)O[C@@H]2O[C@@]3(C)CC[C@H]4[C@H](C)CC[C@@H]1[C@@]24OO3` [artesunate], which “EC50 (inhibition of virus-induced CPE)” value [3] is on record?
Answer: sufficiently low
